How the values were obtained:
HSV-1 = test system: HSV-1
From the text: FIG. 2. […] A 10% w/v solution of KST-301 in DMSO was applied topically to the epidermal infection site 3×/day for 5 days. Controls animals received the same volume of the DMSO vehicle at the same intervals. Lesions were scored as 0=no visible lesions, +1=papules around the infection site, +2=papules are ulcerated around the infection site with eschar formation, +3=ulcerated zosteriform spread along peripheral nerves to the flank of the animal, +4=ulcerated lesions open on the flank, and +5=death of the animal.
The lesions were scored as in the description for FIG. 2.

DU145 cells = assay: Flow cytometric cell cycle analysis of DU145 cells; assay type: cell-based, human
Method: Initially, the mechanism(s) responsible for the antitumor activity of KST-201 were tested in the DU145 cell line. […] The cell cycle distribution of sham-treated (FIG. 4, upper left) DU145 cells or DU145 cells treated with KST-201 at 14 μM (FIG. 4, upper right), 28 μM (FIG. 4, lower left) or 56 μM (FIG. 4, lower right) were determined by flow cytometry.

caspase-3 = assay: Caspase-3 activity in DU145 cells (fluorimetric immunosorbent enzyme assay); assay type: cell-based, human
Method: FIG. 5. Measurement of Caspase-3 Activity in Resveratrol-treated DU145 cells. […] Activity of proteolytic cleavage was determined fluorometrically using Ac-DEVD-AFC as a substrate for activated caspase-3 immobilized on the well surface. The results represent mean±SD of triplicate determinations. The positive control (“Post. Ctl”) was camptothecin-induced apoptosis in U937 cells.
FIG. 6. Measurement of Caspase-3 Activity of KST-201-treated DU145 cells as a function of dose. […] Activity of proteolytic cleavage (caspase-3 activity) and other details are as above.
FIG. 7. Time course of Caspase-3 Activation by KST201 in DU145 cells as a measure of apoptosis. DU145 cells were treated at CD50 of KST201 for 12, 24 or 48 hours. Details are as described for FIG. 5.
The proteolytic activity of caspase-3 in DU145 cells, was measured using a fluorimetric immunosorbent enzyme assay kit. […] After washing and centrifuging, the cell pellet was collected and incubated with dithiothreitol (DTT) lysis buffer on ice. The cell lysate was then transferred to a centrifuge tube for measurement of proteolytic cleavage by caspase-3 utilizing a fluorimetric immunosorbent enzyme assay kit (Roche, Indianapolis, Ind.). Antibody against caspase-3 was diluted in the coating buffer and immobilized to the surface of 96-well plates followed by washing steps. Compound-treated cell lysates and the untreated controls were added to the plate and incubated for one hour at 37° C. Any caspase-3 in the samples was captured by the immobilized antibody. The caspase-3 enzyme cleaved its fluorogenic substrate Ac-DEVD-AFC when it was added to the wells, resulting in. free fluorescent AFC that was measured in a Fluoroskan® Ascent FL plate reader (Thermo, Waltham, Mass.) with a filter set at an excitation/emission of 390 nm/[…]. The fluorescence intensity was proportional to the concentration of AFC determined by a standard curve, generated by different dilutions of AFC standard included in the kit. The amount of activated caspase-3 in the sample was derived from this curve.

bladder cancer = assay: Bladder cancer patients (Example VIII B); assay type: in vivo, human; conditions: intravenous 10 μg to 5 mg/kg over three months
Method: A group of 20 men and 20 women aged 50-75 with bladder cancer are treated by intravenous injection of between 10 μg and 5 mg/kg of KST-201, KST-213, KST-301 or KST-401. Each compound is given to a group of 5 men and 5 women) over a period of three months. Clinical, radiographic and histopathological tests show significant remission in 35% of patients, accompanied by signs of cell death in 45%. There are no significant differences between the results with the four compounds.

breast cancer = assay: Breast cancer prevention, skin patch (Example VIII C); assay type: in vivo, human; conditions: transdermal patch 10 mg to 100 mg daily, one-year study
Method: This study investigates whether KST-201, KST-213, KST-301 and KST-401 administered transdermally each day through a skin patch aid in preventing breast cancer or metastatic cancer following cancer therapy. Patches are prepared with a lipophilic carrier which is readily absorbed through the skin (glycerol cold cream containing glycerin and peanut oil). The HT compound is mixed with the lipophilic cream such that each patch comprises 10 mg to 100 mg of active compound. The patch is applied to the skin each day, and rapid absorption occurs. After two hours, the patch is removed.

colon cancer = assay: Colon cancer patients (Example VIII E); assay type: in vivo, human
Method: Eight patients suffering from advanced colon cancer are treated daily for three weeks with an intravenous infusion of 2 g of the compounds KST-201, KST-213, KST-301 or KST-401 dissolved in saline. Two patients are assigned to each compound. The compounds are dissolved in sterile saline. […] Progression of the tumor is also arrested over the treatment period.
Another eight patients with terminal colon cancer are treated by daily bolus injections (intravenous or intramuscular) of 2 g of KST-201, KST-213, KST-301 or KST-401.

[1] = intravenous infusion 2 g daily for three weeks

SMILES: Oc1ccc(/C=C/c2cc(O)cc(O)c2)cc1 [Resveratrol, 3,5,4′-trihydroxy-trans-stilbene, reference compound]
- Severity of HSV-1 lesions (HSV-1; 10% w/v solution in DMSO, topical 3×/day for 5 days, hairless mice): significantly reduced the severity of the lesions
- Treated animals in which lesion formation was prevented (HSV-1; topical solution in DMSO): 57-67%
- Treated animals showing evidence of HSV infection (HSV-1; topical solution in DMSO, controls 83-100%): 43%
- Maximum (average) lesion score (HSV-1; topical solution in DMSO, scale 0 to +5, controls 3.8-4 by days 8 and 9): 0.8-1.2

SMILES: Oc1ccc(C#Cc2ccc(O)cc2)cc1 [KST-201, 4,4′-dihydroxytolan]
- Phase of Cell Cycle S (DU145 cells; 14 μM, untreated 40): 28
- Phase of Cell Cycle G0/G1 (DU145 cells; 14 μM, untreated 46): 72
- Phase of Cell Cycle G0/G1 (DU145 cells; 28 μM): 77
- Phase of Cell Cycle G2/M (DU145 cells; 28 μM): 3
- Phase of Cell Cycle S (DU145 cells; 28 μM): 20
- Phase of Cell Cycle G0/G1 (DU145 cells; 56 μM): 78
- Phase of Cell Cycle G2/M (DU145 cells; 56 μM): 4
- Phase of Cell Cycle S (DU145 cells; 56 μM): 18
- Effect on cell cycle (in words) (DU145 cells; 14, 28 and 56 μM): G0/G1-S cell cycle arrest
- Caspase-3 activation (caspase-3; 0.5×CD50, 24 hr): effectively activated caspase-3
- Caspase-3 activity (caspase-3; 48 hours or 2×CD50): loss of caspase-3 activity
- Caspase-3 activation (caspase-3; CD50 concentration, 24 hr): activated significantly
- Patients with signs of cell death (bladder cancer): 45%
- Patients with significant remission (bladder cancer; no differences between compounds): 35%
- Breast cancer or metastatic cancer in high-risk group (breast cancer): does not show any evidence of breast cancer or other metastatic cancer
- Dissemination of the tumors (colon cancer; daily bolus injections (intravenous or intramuscular) of 2 g): dissemination of the tumors is diminished
- Cancer marker carcinoembryonic antigen (CEA) (colon cancer; [1]): significant reduction
- Progression of the tumor (colon cancer; [1]): arrested
